These results are taken from US20220259593A1, “CONTROL OF MAMMALIAN GENE DOSAGE USING CRISPR” (The Regents of the University of California, priority 2019, published 2022).

The subject of data set [1] is K562 CRISPRi cells. The data set can be described thus: Perturb-seq pooled growth measurement (sgRNA counts, growth phenotype γ, relative activity). In kind it is cell-based, human. The settings on record: γ relative to perfectly matched sgRNA (_00) of the same gene, day 10.
For data set [2], the system named is K562 CRISPRi cells. The data set is described as above. In kind it is cell-based, human. The settings on record: for gamma_day5 / gamma_day10: pooled growth phenotype γ of the Perturb-seq sgRNA; for gamma_day5: day 5, K562 CRISPRi cells; for gamma_day10: day 10, K562 CRISPRi cells; for relative_activity_day5: γ relative to perfectly matched sgRNA (_00) of the same gene, day 5. The gist of the method: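 CRISPRi K562 cells from the Perturb-seq transduced pool; 500,000-cell samples taken days two, seven and twelve post-transduction. sgRNA amplicons from genomic DNA sequenced; growth phenotypes from normalized sgRNA abundances at days seven and twelve versus day two. Relative activity assigned from day seven (five days' growth).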

As to “GNB2L1_ + _180670873.23-P1P2_00 (guide GTGCAAGGCGGCGGCAGGAG; listed as DNA, chemistry not fully specified)”, the relative_activity_day10 in the data set on K562 CRISPRi cells [1] was found to be 1. In the data set on K562 CRISPRi cells [2], this substance returned a gamma_day5 of −0.2908, a gamma_day10 of −0.3054 and a relative_activity_day5 of 1.

In the data set with K562 CRISPRi cells [1], “GNB2L1_ + _180670873.23-P1P2_02 (guide GTGCAAGACGGCGGCAGGAG; listed as DNA, chemistry not fully specified)” returned a relative_activity_day10 of 0.4167. In the data set with K562 CRISPRi cells [2], this substance showed a gamma_day5 of −0.1438, a gamma_day10 of −0.1273 and a relative_activity_day5 of 0.4945.

“GNB2L1_ + _180670873.23-P1P2_07 (guide GTGCAAGGCGGGGGCAGGAG; listed as DNA, chemistry not fully specified)” returned a relative_activity_day10 in the data set on K562 CRISPRi cells [1] of 0.8948. In the data set on K562 CRISPRi cells [2], this substance showed a gamma_day5 of −0.38, a gamma_day10 of −0.2733 and a relative_activity_day5 of 1.307.

In the data set on K562 CRISPRi cells [1], “GNB2L1_ + _180670873.23-P1P2_08 (guide GTGCAAGGTGGCGGCAGGAG; listed as DNA, chemistry not fully specified)” gave a relative_activity_day10 of 1.033. Further, in the data set on K562 CRISPRi cells [2], the gamma_day5 is listed as −0.3061, the gamma_day10 was −0.3155 and the relative_activity_day5 was found to be 1.052.

“GNB2L1_ + _180670873.23-P1P2_13 (guide GTGCAAGGCGGCGGCGGGAG; listed as DNA, chemistry not fully specified)” came in with a relative_activity_day10 with K562 CRISPRi cells [1] of 0.6791. In the data set with K562 CRISPRi cells [2], the gamma_day5 is −0.2097, the gamma_day10 is −0.2074 and the relative_activity_day5 worked out at 0.7211.

“HSPA5_ + _128003624.23-P1P2_00 (guide GAGCCGAGTAGGCGACGGTG; listed as DNA, chemistry not fully specified)” came in with a relative_activity_day10 in the data set on K562 CRISPRi cells [1] of 1. Besides, in the data set on K562 CRISPRi cells [2], the gamma_day5 is −0.7476, the gamma_day10 is −0.4272 and the relative_activity_day5 was 1.

For “HSPA5_ + _128003624.23-P1P2_01 (guide GAACCGAGTAGGCGACGGTG; listed as DNA, chemistry not fully specified)”, in the data set on K562 CRISPRi cells [1], the relative_activity_day10 came out at 0.8774. In the data set with K562 CRISPRi cells [2], the gamma_day5 is reported as −0.6373, the gamma_day10 is reported as −0.3748 and the relative_activity_day5 was 0.8525.

As for “HSPA5_ + _128003624.23-P1P2_04 (guide GAGCCGAGAAGGCGACGGTG; listed as DNA, chemistry not fully specified)”, the relative_activity_day10 in the data set with K562 CRISPRi cells [1] was found to be 0.989. In the data set with K562 CRISPRi cells [2], the gamma_day5 is −0.7544, the gamma_day10 is −0.4225 and the relative_activity_day5 is reported as 1.009.

“HSPA5_ + _128003624.23-P1P2_06 (guide GAGCCGAGTAGACGACGGTG; listed as DNA, chemistry not fully specified)” gave a relative_activity_day10 in the data set with K562 CRISPRi cells [1] of 0.2302. In the data set with K562 CRISPRi cells [2], the gamma_day5 was −0.1192, the gamma_day10 was −0.09835 and the relative_activity_day5 is reported as 0.1594.

As to “HSPA5_ + _128003624.23-P1P2_08 (guide GAGCCGAGTGGGCGACGGTG; listed as DNA, chemistry not fully specified)”, the relative_activity_day10 in the data set on K562 CRISPRi cells [1] was found to be 1.038. For the same substance, in the data set with K562 CRISPRi cells [2], the gamma_day5 is reported as −0.7566, the gamma_day10 is −0.4435 and the relative_activity_day5 is reported as 1.012.

Substance “HSPA9_ −_137911079.23-P1P2_00 (guide GGAGCTGCGCGATGCGGTGG; listed as DNA, chemistry not fully specified)” registered a relative_activity_day10 in the data set with K562 CRISPRi cells [1] of 1. For the same substance, in the data set on K562 CRISPRi cells [2], the gamma_day5 is listed as −0.95, the gamma_day10 is −0.5892 and the relative_activity_day5 amounted to 1.

With “HSPA9_ −_137911079.23-P1P2_02 (guide GGAGTTGCGCGATGCGGTGG; listed as DNA, chemistry not fully specified)”, the relative_activity_day10 in the data set on K562 CRISPRi cells [1] is reported as 0.6835. In the data set with K562 CRISPRi cells [2], this substance had a gamma_day5 of −0.6504, a gamma_day10 of −0.4027 and a relative_activity_day5 of 0.6846.

“HSPA9_ −_137911079.23-P1P2_04 (guide GGAGCTGCGCAATGCGGTGG; listed as DNA, chemistry not fully specified)” gave a relative_activity_day10 in the data set with K562 CRISPRi cells [1] of 0.2813. Also, in the data set on K562 CRISPRi cells [2], the gamma_day5 is −0.2005, the gamma_day10 is reported as −0.1657 and the relative_activity_day5 amounted to 0.211.

Take “HSPA9_ −_137911079.23-P1P2_07 (guide GGAGCTGCGGGATGCGGTGG; listed as DNA, chemistry not fully specified)”: the relative_activity_day10 with K562 CRISPRi cells [1] was determined as 0.8547. In the data set with K562 CRISPRi cells [2], this substance registered a gamma_day5 of −0.8109, a gamma_day10 of −0.5036 and a relative_activity_day5 of 0.8537.

In the case of “HSPA9_ −_137911079.23-P1P2_08 (guide GGAGCTGCTCGATGCGGTGG; listed as DNA, chemistry not fully specified)”, the relative_activity_day10 with K562 CRISPRi cells [1] came out at 0.4688. In the data set on K562 CRISPRi cells [2], this substance returned a gamma_day5 of −0.3582, a gamma_day10 of −0.2762 and a relative_activity_day5 of 0.3771.

“HSPE1_ + _198365089.23-P1P2_00 (guide GGAGACTCGCAGTCCGGCCC; listed as DNA, chemistry not fully specified)” had a relative_activity_day10 in the data set with K562 CRISPRi cells [1] of 1. In the data set with K562 CRISPRi cells [2], this substance returned a gamma_day5 of −0.7018, a gamma_day10 of −0.5672 and a relative_activity_day5 of 1.

In the case of “HSPE1_ + _198365089.23-P1P2_01 (guide GGAGACACGCAGTCCGGCCC; listed as DNA, chemistry not fully specified)”, in the data set with K562 CRISPRi cells [1], the relative_activity_day10 stood at 0.8523. In the data set on K562 CRISPRi cells [2], this substance had a gamma_day5 of −0.616, a gamma_day10 of −0.4834 and a relative_activity_day5 of 0.8777.

As for “HSPE1_ + _198365089.23-P1P2_02 (guide GGAGACTGGCAGTCCGGCCC; listed as DNA, chemistry not fully specified)”, the relative_activity_day10 in the data set with K562 CRISPRi cells [1] stood at 0.6285. In the data set on K562 CRISPRi cells [2], this substance displayed a gamma_day5 of −0.4365, a gamma_day10 of −0.3565 and a relative_activity_day5 of 0.622.

For the substance “HSPE1_ + _198365089.23-P1P2_03 (guide GGTGACTCGCAGTCCGGCCC; listed as DNA, chemistry not fully specified)”, the relative_activity_day10 with K562 CRISPRi cells [1] came to 0.8198. In the data set on K562 CRISPRi cells [2], this substance came in with a gamma_day5 of −0.6427, a gamma_day10 of −0.465 and a relative_activity_day5 of 0.9158.

Consider “HSPE1_ + _198365089.23-P1P2_14 (guide GGAGACTCGCAGTCCTGCCC; listed as DNA, chemistry not fully specified)”, for which the relative_activity_day10 with K562 CRISPRi cells [1] came to 0.3465. In the data set on K562 CRISPRi cells [2], this substance returned a gamma_day5 of −0.2088, a gamma_day10 of −0.1965 and a relative_activity_day5 of 0.2975.

In turn, “MTOR_ + _11322547.23-P1P2_00 (guide GGGCAGGGGGCCTGAAGCGG; listed as DNA, chemistry not fully specified)” had a relative_activity_day10 in the data set on K562 CRISPRi cells [1] of 1. In the data set on K562 CRISPRi cells [2], this substance registered a gamma_day5 of −0.6872, a gamma_day10 of −0.5618 and a relative_activity_day5 of 1.

Regarding “MTOR_ + _11322547.23-P1P2_05 (guide GGGCAGGGGGCTTGAAGCGG; listed as DNA, chemistry not fully specified)”, in the data set on K562 CRISPRi cells [1], the relative_activity_day10 worked out at 0.6137. For the same substance, in the data set with K562 CRISPRi cells [2], the gamma_day5 was −0.4313, the gamma_day10 is −0.3448 and the relative_activity_day5 stood at 0.6275.

Regarding “MTOR_ + _11322547.23-P1P2_06 (guide GGGCAGGGGGGCTGAAGCGG; listed as DNA, chemistry not fully specified)”, the relative_activity_day10 with K562 CRISPRi cells [1] is reported as 0.532. In the data set on K562 CRISPRi cells [2], this substance came in with a gamma_day5 of −0.3933, a gamma_day10 of −0.2989 and a relative_activity_day5 of 0.5723.

In the data set with K562 CRISPRi cells [1], “MTOR_ + _11322547.23-P1P2_07 (guide GGGCAGGGGGTCTGAAGCGG; listed as DNA, chemistry not fully specified)” had a relative_activity_day10 of 0.8541. In the data set with K562 CRISPRi cells [2], this substance registered a gamma_day5 of −0.5893, a gamma_day10 of −0.4799 and a relative_activity_day5 of 0.8576.

Consider “MTOR_ + _11322547.23-P1P2_10 (guide GGGCAGGGGGCCTGAAGCAG; listed as DNA, chemistry not fully specified)”, for which the relative_activity_day10 in the data set with K562 CRISPRi cells [1] came to 0.4141. In the data set with K562 CRISPRi cells [2], this substance returned a gamma_day5 of −0.3048, a gamma_day10 of −0.2327 and a relative_activity_day5 of 0.4435.

“POLR1D_ + _28196016.23-P1_00 (guide GGGAAGCAAGGACCGACCGA; listed as DNA, chemistry not fully specified)” displayed a relative_activity_day10 with K562 CRISPRi cells [1] of 1. Further, in the data set with K562 CRISPRi cells [2], the gamma_day5 was −0.7594, the gamma_day10 was −0.6213 and the relative_activity_day5 is 1.

In turn, “POLR1D_ + _28196016.23-P1_01 (guide GGGAAGCCAGGACCGACCGA; listed as DNA, chemistry not fully specified)” yielded a relative_activity_day10 in the data set on K562 CRISPRi cells [1] of 0.8718. In the data set with K562 CRISPRi cells [2], this substance yielded a gamma_day5 of −0.6945, a gamma_day10 of −0.5416 and a relative_activity_day5 of 0.9145.

Turning to “POLR1D_ + _28196016.23-P1_03 (guide GGTAAGCAAGGACCGACCGA; listed as DNA, chemistry not fully specified)”, the relative_activity_day10 in the data set with K562 CRISPRi cells [1] stood at 1.1. Further, in the data set with K562 CRISPRi cells [2], the gamma_day5 was −0.8471, the gamma_day10 is given as −0.6833 and the relative_activity_day5 was found to be 1.116.
